Reference: US20250197372A1 (priority 2020, published 2025)
Where two headings read alike, the source gives them in different places.

Columns and labels:
[1] = target: T1, recombinant human GBA (beta-glucocerebrosidase) (Homo sapiens, UniProt P04062); assay: Beta-glucocerebrosidase (GBA, glucosylceramidase) assay (4-methylumbelliferyl-beta-D-pyranoside substrate, fluorescence); assay type: biochemical
T1 sequence (P04062 40-536): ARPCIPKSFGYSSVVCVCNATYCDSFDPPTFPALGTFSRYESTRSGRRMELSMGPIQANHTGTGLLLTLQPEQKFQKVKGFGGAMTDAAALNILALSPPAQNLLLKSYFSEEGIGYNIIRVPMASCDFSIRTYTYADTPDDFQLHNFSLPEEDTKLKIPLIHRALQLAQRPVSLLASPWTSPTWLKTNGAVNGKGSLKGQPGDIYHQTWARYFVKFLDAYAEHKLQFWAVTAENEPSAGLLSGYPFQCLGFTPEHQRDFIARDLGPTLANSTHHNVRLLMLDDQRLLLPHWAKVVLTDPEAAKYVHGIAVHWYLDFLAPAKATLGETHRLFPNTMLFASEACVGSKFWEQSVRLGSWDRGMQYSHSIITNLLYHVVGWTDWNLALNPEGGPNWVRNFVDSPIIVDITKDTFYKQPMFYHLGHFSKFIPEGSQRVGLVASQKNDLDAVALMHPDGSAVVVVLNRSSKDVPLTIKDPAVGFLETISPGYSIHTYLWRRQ
Method: Beta-glucocerebrosidase (GBA, also referred to glucosylceramidase): To analyze inhibitory effects of a test compound, commercially available recombinant human GBA was incubated with multiple dilutions of test compound for 60 minutes at 37° C. 4-methylumbelliferyl-beta-D-pyranoside was then introduced to the mixture as substrate. Following incubation for 60 minutes at 37° C., 1,4-methyllumbelliferone was generated, and the reaction was stopped with the stop solution (0.5 M glycine; 0.3 M NaOH, pH 10). 1,4-methyllumbelliferone was detected by fluorescence (excitation at 365 nm, emission at 440 nm). Relative fluorescence compared to untreated enzymatic activity and test compound concentration is then plotted as a function of percent inhibition. The IC50 was determined using a 4-PL curve fit as the measure of relative inhibitory activity of each test compound (see Table 3).

[2] = target: T2, recombinant alpha-glucosidase II (murine full-length glucosidase II, alpha and beta subunits, Glu 2) (Mus musculus, UniProt Q8BHN3); assay: Alpha-glucosidase II assay (4-methylumbelliferyl-alpha-D-pyranoside substrate, fluorescence); assay type: biochemical
T2 construct: made in house; host or cells: HEK-293T cells transduced with BacMam viruses (75% alpha, 25% beta); protein harvested from culture supernatant
T2 sequence (O08795 15-521): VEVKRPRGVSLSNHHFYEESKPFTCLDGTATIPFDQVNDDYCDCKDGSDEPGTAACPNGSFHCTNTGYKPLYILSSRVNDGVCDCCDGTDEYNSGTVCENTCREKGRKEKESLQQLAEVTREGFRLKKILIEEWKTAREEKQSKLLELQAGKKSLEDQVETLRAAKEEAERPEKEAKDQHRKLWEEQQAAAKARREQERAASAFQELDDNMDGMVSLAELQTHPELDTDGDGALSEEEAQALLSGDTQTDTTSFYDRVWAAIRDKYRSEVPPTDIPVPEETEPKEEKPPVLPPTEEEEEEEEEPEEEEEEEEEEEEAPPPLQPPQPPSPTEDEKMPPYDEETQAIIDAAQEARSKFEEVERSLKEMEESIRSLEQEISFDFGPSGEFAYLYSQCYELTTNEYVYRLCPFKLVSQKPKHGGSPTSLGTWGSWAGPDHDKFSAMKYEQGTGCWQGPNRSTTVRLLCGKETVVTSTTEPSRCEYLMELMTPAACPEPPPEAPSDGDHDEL
T2 sequence (Q8BHN3 33-944): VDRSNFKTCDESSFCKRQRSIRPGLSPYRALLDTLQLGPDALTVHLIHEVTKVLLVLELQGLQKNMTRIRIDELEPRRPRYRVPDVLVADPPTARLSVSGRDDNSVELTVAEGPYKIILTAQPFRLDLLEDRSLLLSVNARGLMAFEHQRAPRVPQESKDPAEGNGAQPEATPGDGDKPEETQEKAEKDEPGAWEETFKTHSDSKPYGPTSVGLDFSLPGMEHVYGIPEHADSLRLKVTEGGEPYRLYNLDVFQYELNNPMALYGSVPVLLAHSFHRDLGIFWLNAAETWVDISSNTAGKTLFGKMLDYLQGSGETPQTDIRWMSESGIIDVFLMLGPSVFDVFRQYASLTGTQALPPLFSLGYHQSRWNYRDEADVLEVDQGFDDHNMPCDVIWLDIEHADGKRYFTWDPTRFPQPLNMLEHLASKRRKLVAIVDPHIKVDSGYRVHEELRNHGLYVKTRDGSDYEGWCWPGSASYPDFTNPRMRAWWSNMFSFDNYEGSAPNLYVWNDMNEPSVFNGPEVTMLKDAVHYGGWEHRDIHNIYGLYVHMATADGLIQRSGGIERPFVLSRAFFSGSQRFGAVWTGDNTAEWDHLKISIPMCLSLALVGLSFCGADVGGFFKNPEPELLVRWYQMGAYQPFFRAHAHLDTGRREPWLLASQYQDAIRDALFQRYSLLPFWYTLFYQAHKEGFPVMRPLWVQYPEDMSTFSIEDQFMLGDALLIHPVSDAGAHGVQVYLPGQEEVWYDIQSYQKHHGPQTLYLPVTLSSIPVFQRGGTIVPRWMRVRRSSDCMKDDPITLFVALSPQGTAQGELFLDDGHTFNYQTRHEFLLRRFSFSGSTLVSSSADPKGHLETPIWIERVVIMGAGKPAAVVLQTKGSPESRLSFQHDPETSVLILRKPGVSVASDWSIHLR

[3] = Glucosidase 2, read-out: Glu2 IC50

Compound	IC50 [1]	IC50 [2, 3]	IC50 [2]
OC[C@@H]1[C@@H](O)[C@H](O)[C@@H](O)CN1CCCCCCNc1cc(Cl)cc(-c2cnccn2)c1 [Compound 1196, (2R,3R,4R,5S)-1-(6-{[3-chloro-5-(pyrazin-2-yl)phenyl]amino}hexyl)-2-(hydroxymethyl)piperidine-3,4,5-triol]	773 nM	2 nM	
COc1cc(NCCCCCCN2C[C@H](O)[C@@H](O)[C@H](O)[C@H]2CO)cc(C2=CCCO2)c1 [Compound 1147, (2R,3R,4R,5S)-1-(6-{[3-(4,5-dihydrofuran-2-yl)-5-methoxyphenyl]amino}hexyl)-2-(hydroxymethyl)piperidine-3,4,5-triol]	1980 nM	34 nM	
CS(=O)(=O)c1cc(Br)cc(NCc2cccc(CN3C[C@H](O)[C@@H](O)[C@H](O)[C@H]3CO)c2)c1 [Compound 1022, (2R,3R,4R,5S)-1-[(3-{[(3-bromo-5-methanesulfonylphenyl)amino]methyl}phenyl)methyl]-2-(hydroxymethyl)piperidine-3,4,5-triol]	90400 nM	7920 nM	
[N-]=[N+]=Nc1ccc(NCc2ccc(CN3C[C@H](O)[C@@H](O)[C@H](O)[C@H]3CO)cc2)c([N+](=O)[O-])c1 [Compound 1170, (2R,3R,4R,5S)-1-[(4-{[(4-azido-2-nitrophenyl)amino]methyl}phenyl)methyl]-2-(hydroxymethyl)piperidine-3,4,5-triol]	29900 nM	< 1 nM	
Cc1cc(NCc2ccc(CN3C[C@H](O)[C@@H](O)[C@H](O)[C@H]3CO)cc2)cc(-c2cccnn2)c1 [Compound 1052, (2R,3R,4R,5S)-2-(hydroxymethyl)-1-{[4-({[3-methyl-5-(pyridazin-3-yl)phenyl]amino}methyl)phenyl]methyl}piperidine-3,4,5-trio]	84500 nM	179 nM	
O=[N+]([O-])c1cc(N2C3CCC2COC3)ccc1NCc1ccc(CN2CC(O)C(O)C(O)C2CO)cc1 (stereo in doubt) [Compound 1018, (2S,3S,4S,5R)-2-(hydroxymethyl)-1-({4-[({2-nitro-4-[(1R,5S)-3-oxa-8-azabicyclo[3.2.1]octan-8-yl]phenyl}amino)methyl]phenyl}methyl) piperidine-3,4,5-triol]	> 100000 nM		< 1 nM
OC[C@@H]1[C@@H](O)[C@H](O)[C@@H](O)CN1CCCCCCNc1ccc(-c2cnccn2)cc1Cl [Compound 1198, (2R,3R,4R,5S)-1-(6-{[2-chloro-4-(pyrazin-2-yl)phenyl]amino}hexyl)-2-(hydroxymethyl)piperidine-3,4,5-triol]	2700 nM	17 nM	
OC[C@@H]1[C@@H](O)[C@H](O)[C@@H](O)CN1CCc1ccc(CCNc2cc(Cl)cc(-c3ccco3)c2)cc1 [Compound 1159, (2R,3R,4R,5S)-1-{2-[4-(2-{[3-chloro-5-(furan-2-yl)phenyl]amino}ethyl)phenyl]ethyl}-2-(hydroxymethyl)piperidine-3,4,5-triol]	1050 nM	91 nM	
OC[C@@H]1[C@@H](O)[C@H](O)[C@@H](O)CN1CCCCCCNc1cc(-c2cccnn2)cc(C2CC2)c1 [Compound 1008, (2R,3R,4R,5S)-1-(6-{[3-cyclopropyl-5-(pyridazin-3-yl)phenyl]amino}hexyl)-2-(hydroxymethyl)piperidine-3,4,5-triol]	2330 nM	12 nM	
COc1cc(NCCc2ccc(CCN3C[C@H](O)[C@@H](O)[C@H](O)[C@H]3CO)cc2)cc(C2=COCCO2)c1 [Compound 1155, (2R,3R,4R,5S)-1-{2-[4-(2-{[3-(5,6-dihydro-1,4-dioxin-2-yl)-5-methoxyphenyl]amino}ethyl)phenyl]ethyl}-2-(hydroxymethyl)piperidine-3,4,5-triol]	3540 nM	< 1 nM	
COc1cc(CN2CCCO2)cc(NCCCCCCN2C[C@H](O)[C@@H](O)[C@H](O)[C@H]2CO)c1 [Compound 1182, (2R,3R,4R,5S)-2-(hydroxymethyl)-1-[6-({3-methoxy-5-[(1,2-oxazolidin-2-yl)methyl]phenyl}amino)hexyl]piperidine-3,4,5-triol]	6130 nM	2 nM	
CN(C)C(=O)c1cc(NCCCCCCN2C[C@H](O)[C@@H](O)[C@H](O)[C@H]2CO)cc(-c2ncccn2)c1 [Compound 1126, N,N-dimethyl-3-(pyrimidin-2-yl)-5-({6-[(2R,3R,4R,5S)-3,4,5-trihydroxy-2-(hydroxymethyl)piperidin-1-yl]hexyl}amino)benzamide]	7040 nM	35 nM	
COc1cc(NCCCCCCN2C[C@H](O)[C@@H](O)[C@H](O)[C@H]2CO)cc(C2CCCCC2)c1 [Compound 1148, (2R,3R,4R,5S)-1-{6-[(3-cyclohexyl-5-methoxyphenyl)amino]hexyl}-2-(hydroxymethyl)piperidine-3,4,5-triol]	2 nM	< 1 nM	
OC[C@@H]1[C@@H](O)[C@H](O)[C@@H](O)CN1CCc1ccc(CCNc2cc(Cl)cc(C3=COCCO3)c2)cc1 [Compound 1161, (2R,3R,4R,5S)-1-{2-[4-(2-{[3-chloro-5-(5,6-dihydro-1,4-dioxin-2-yl)phenyl]amino}ethyl)phenyl]ethyl}-2-(hydroxymethyl)piperidine-3,4,5-triol]	2820 nM	2 nM	
CS(=O)(=O)c1cc(NCc2cccc(CN3C[C@H](O)[C@@H](O)[C@H](O)[C@H]3CO)c2)cc(-c2ncccn2)c1 [Compound 1041, (2R,3R,4R,5S)-2-(hydroxymethyl)-1-{[3-({[3-methanesulfonyl-5-(pyrimidin-2-yl)phenyl]amino}methyl)phenyl]methyl}piperidine-3,4,5-triol]	> 100000 nM	7180 nM	
OC[C@@H]1[C@@H](O)[C@H](O)[C@@H](O)CN1CCCCCCNc1cc(Cl)cc(CN2CCCO2)c1 [Compound 1183, (2R,3R,4R,5S)-1-[6-({3-chloro-5-[(1,2-oxazolidin-2-yl)methyl]phenyl}amino)hexyl]-2-(hydroxymethyl)piperidine-3,4,5-triol]	5620 nM	4 nM	
OC[C@@H]1[C@@H](O)[C@H](O)[C@@H](O)CN1CCc1ccc(CCNc2cc(Cl)cc(-c3cccnn3)c2)cc1 [Compound 1163, (2R,3R,4R,5S)-1-{2-[4-(2-{[3-chloro-5-(pyridazin-3-yl)phenyl]amino}ethyl)phenyl]ethyl}-2-(hydroxymethyl)piperidine-3,4,5-triol]	6820 nM	< 1 nM	
CC(=O)Nc1cc(NCCCCCCN2C[C@H](O)[C@@H](O)[C@H](O)[C@H]2CO)cc(-c2ncccn2)c1 [Compound 1125, N-[3-(pyrimidin-2-yl)-5-({6-[(2R,3R,4R,5S)-3,4,5-trihydroxy-2-(hydroxymethyl)piperidin-1-yl]hexyl}amino)phenyl]acetamide]	9690 nM	19 nM	
CS(=O)(=O)c1cc(NCCCCCCN2C[C@H](O)[C@@H](O)[C@H](O)[C@H]2CO)cc(-c2ncccn2)c1 [Compound 1128, (2R,3R,4R,5S)-2-(hydroxymethyl)-1-(6-{[3-methanesulfonyl-5-(pyrimidin-2-yl)phenyl]amino}hexyl)piperidine-3,4,5-triol]	5200 nM	1 nM	
COc1cc(NCCc2ccc(CCN3C[C@H](O)[C@@H](O)[C@H](O)[C@H]3CO)cc2)cc(-c2ncccn2)c1 [Compound 1156, (2R,3R,4R,5S)-2-(hydroxymethyl)-1-{2-[4-(2-{[3-methoxy-5-(pyrimidin-2-yl)phenyl]amino}ethyl)phenyl]ethyl}piperidine-3,4,5-triol]	7130 nM	118 nM	
[N-]=[N+]=Nc1ccc(NCc2cccc(CN3C[C@H](O)[C@@H](O)[C@H](O)[C@H]3CO)c2)c([N+](=O)[O-])c1 [Compound 1169, (2R,3R,4R,5S)-1-[(3-{[(4-azido-2-nitrophenyl)amino]methyl}phenyl)methyl]-2-(hydroxymethyl)piperidine-3,4,5-triol]	83500 nM	16100 nM	
COC(OC)c1cc(NCCCCCCN2C[C@H](O)[C@@H](O)[C@H](O)[C@H]2CO)cc(-c2ncccn2)c1 [Compound 1124, (2R,3R,4R,5S)-1-(6-{[3-(dimethoxymethyl)-5-(pyrimidin-2-yl)phenyl]amino}hexyl)-2-(hydroxymethyl)piperidine-3,4,5-triol]	3000 nM	18 nM	
OC[C@@H]1[C@@H](O)[C@H](O)[C@@H](O)CN1CCc1ccc(CCNc2cc(Cl)cc(-c3ncon3)c2)cc1 [Compound 1113, (2R,3R,4R,5S)-1-{2-[4-(2-{[3-chloro-5-(1,2,4-oxadiazol-3-yl)phenyl]amino}ethyl)phenyl]ethyl}-2-(hydroxymethyl)piperidine-3,4,5-triol]	6290 nM		296 nM
